We go through one compound from patent US20100120788A1, “IDENTIFICATION OF POLYNUCLEOTIDES FOR […] OF COMPOUNDS THAT […] WITH AND/OR MODULATE PROTEIN TYROSINE KINASES AND/OR PROTEIN TYROSINE KINASE […] IN PROSTATE CELLS” (Bristol-Myers Squibb Company, priority 2007, published 2010).

The test system of assay [1] is uPA protein. As to the kind of experiment: uPA protein level in plasma of mice bearing PC3 xenograft tumors (ELISA). The format is in vivo, nu/nu athymic mice. Particulars: 30 mg/kg orally twice a day; following first week of treatment. The protocol:
FIG. 5. […] Xenograft tumors were established subcutaneously in nu/nu athymic mice. The mice were divided into three groups each with 8 mice after tumors had reached approximately 200 mg. […] Dasatinib was administered orally twice a day on a 5-day-on 2-day-off schedule for 20 doses. The tumor size measurement and blood sampling were performed prior to treatment and weekly for two weeks after treatment initiation. […] Experiments were performed as described in Example 2.
The mice were divided into three groups each with 8 mice after tumors had reached approximately 200 mg. […] Dasatinib was administered orally twice a day on a 5-day-on 2-day-off schedule for 20 doses. The tumor size measurement and blood sampling were performed prior to treatment and weekly for two weeks after treatment initiation. Tumor weight was determined using the following equation: tumor weight=(length*width^2)/2.
For orientation: In an ELISA, binding on a coated surface is turned into a signal by an enzyme label.

The test system of assay [2] is DUCaP. As to the kind of experiment: In vitro cell proliferation assay (MTS). It is filed as cell-based, human. The note with it: DUCaP cells. The protocol:
(§1) The IC50 for each cell line was assessed in by MTS assays as described in Example 1 (Methods). […] The IC50 unit is μM.
(§2) All cell lines were obtained from the American Type Culture Collection (Manassas, Va.), except DUCaP, which was obtained from Dr. Kenneth Pienta at University of Michigan. PWR1E and MDAPCa2b cells were grown in BRFF-HPC1 serum-free medium (AthenaES, Baltimore, Md.), and all other cells were cultured in RPMI 1640 supplemented with 10% fetal bovine serum, 100 IU/ml penicillin, and […] (Invitrogen, Carlsbad, Calif.). DUCaP cells were maintained in the presence of an immortalized mouse fibroblast cell line, which formed a layer beneath DUCaP cells that easily dislodged. Cells were incubated at 37° C. with circulation of 5% CO2.
(§3) The optimum number of cells to seed in 96-well plates to achieve linearity were determined in pilot experiments. Cells were plated at density of 2000-5000 cells/well into 96-well plates and cultured overnight. Cells were then treated with dasatinib at serially diluted concentrations. Three days later, MTS was added to the medium and quantified on a SPECTRAMAX® photometric plate reader (Molecular Devices, Sunnyvale, Calif.) at 490 nm. The results were plotted against drug concentrations and IC50s were calculated using Prism4 software (GraphPad, San Diego, Calif.). The IC50 was the concentration of dasatinib that would reduce cell proliferation by 50% compared to control. Minimum three independent assays were performed for each cell line. […] In the latter case, the concentration of dasatinib that was able to consistently reduce cell proliferation was used as IC50. […] Dasatinib stock, dissolved in DMSO, was 10 mg/ml.

Assay [3] has as its system RWPE1. As to the kind of experiment: In vitro cell proliferation assay (MTS). It is filed as cell-based, human. Particulars: RWPE1 cells. The protocol:
as §1, §2, §3

Assay [4] relates to PWR1E. The assay can be described thus: In vitro cell proliferation assay (MTS). It is filed as cell-based, human. The note with it: PWR1E cells. The protocol: as §1, §2, §3
For assay [5], the system named is RWPE2. The assay can be described thus: In vitro cell proliferation assay (MTS). It is filed as cell-based, human. Particulars: RWPE2 cells. The protocol: as §1, §2, §3
Assay [6] concerns PC3. As to the kind of experiment: In vitro cell proliferation assay (MTS). It is filed as cell-based, human. The note with it: PC3 cells. How it is done: as §1, §2, §3
In assay [7] the test system is DU145. As to the kind of experiment: In vitro cell proliferation assay (MTS). The format is cell-based, human. Particulars: DU145 cells. How it is done:
as §1, §2, §3

The test system of assay [8] is MDAPCa2b. The assay can be described thus: In vitro cell proliferation assay (MTS). The format is cell-based, human. The note with it: MDAPCa2b cells. How it is done:
as §1, §2, §3

For assay [9], the system named is HPV10. As to the kind of experiment: In vitro cell proliferation assay (MTS). It is filed as cell-based, human. Particulars: HPV10 cells. The protocol: as §1, §2, §3
The subject of assay [10] is WPMY1. As to the kind of experiment: In vitro cell proliferation assay (MTS). It is filed as cell-based, human. Particulars: WPMY1 cells. How it is done:
as §1, §2, §3

Assay [11] deals with NB11. As to the kind of experiment: In vitro cell proliferation assay (MTS). It is filed as cell-based, human. The note with it: NB11 cells. How it is done:
as §1, §2, §3

In assay [12] the test system is 16 prostate cell lines. The assay can be described thus: IC50 grouping of the panel of prostate cell lines (MTS). The format is cell-based. Particulars: Homo sapiens. The protocol:
Based on the IC50s, cell lines were classified into two groups: 11 cell lines with IC50 lower than 200 nM were designated as sensitive group, and 5 cell lines with IC50 at least greater than 2 μM were considered as resistant group. The separation of these two groups was quite well, and the sensitive/resistant demarcation of 200 nM is within the peak range of BMS-A plasma concentrations in patients treated with the doses near the maximum tolerated dose.
The effect of BMS-A (dasatinib) treatment on cell proliferation was measured using a MTS colorimetric method (Promega, Madison, Wis.). The optimum number of cells to seed in 96-well plates to achieve linearity were determined in pilot experiments. Cells were plated at density of 2000-5000 cells/well into 96-well plates and cultured overnight. Cells were then treated with dasatinib at serially diluted concentrations. Three days later, MTS was added to the medium and quantified on a SPECTRAMAX® photometric plate reader (Molecular Devices, Sunnyvale, Calif.) at 490 nm. The results were plotted against drug concentrations and IC50s were calculated using Prism4 software (GraphPad, San Diego, Calif.). […] The mean±standard deviation (SD) were calculated except for cell lines that were highly resistant to the compound where accurate IC50s were hard to obtain. […]

Setting [13] is: Homo sapiens, 72 h, MTS, three days, read-out: mean IC50 (μM) to BMS-A.

Turning to `Cc1nc(Nc2ncc(C(=O)Nc3c(C)cccc3Cl)s2)cc(N2CCN(CCO)CC2)n1` [BMS-A, N-(2-chloro-6-methylphenyl)-2-[[6-[4-(2-hydroxyethyl)-1-piperazinyl]-2-methyl-4-pyrimidinyl]amino]-5-thiazolecarboxamide], the “reduction of plasma uPA level” value in assay [1] is reported as roughly 30%. The Classification result in [2] (based on IC50) is reported as “Resistant (those having an IC50 above 0.2 μm were considered to be resistant)”; in [3] (based on IC50) it was “Sensitive (The cell lines with an IC50 lower than 0.2 μm were defined as sensitive to the compound)”; in [4] (based on IC50), “Sensitive (The cell lines with an IC50 lower than 0.2 μm were defined as sensitive to the compound)”; in assay [5] (based on IC50), “Sensitive (The cell lines with an IC50 lower than 0.2 μm were defined as sensitive to the compound)”; in assay [6] (based on IC50), “Sensitive (The cell lines with an IC50 lower than 0.2 μm were defined as sensitive to the compound)”; in [7] (based on IC50), “Sensitive (The cell lines with an IC50 lower than 0.2 μm were defined as sensitive to the compound)”. Besides, the Classification entry was “Resistant (those having an IC50 above 0.2 μm were considered to be resistant)” in assay [8] (based on IC50), “Sensitive (The cell lines with an IC50 lower than 0.2 μm were defined as sensitive to the compound)” in assay [9] (based on IC50), “Resistant (those having an IC50 above 0.2 μm were considered to be resistant)” in assay [10] (based on IC50) and “Sensitive (The cell lines with an IC50 lower than 0.2 μm were defined as sensitive to the compound)” in assay [11] (based on IC50). Moreover, the IC50 (as a rule, the concentration that gives 50% inhibition) was determined as 2.5 µM in [2] (Homo sapiens, 72 h, MTS, three days, highly resistant: concentration that consistently reduced proliferation used as IC50, read-out: mean IC50 (μM) to BMS-A); 0.12 µM in assay [3] (Homo sapiens, RWPE-1, 72 h, MTS, three days, read-out: mean IC50 (μM) to BMS-A); 0.145 µM in assay [4] (Homo sapiens, PWR-1E, 72 h, MTS, three days, read-out: mean IC50 (μM) to BMS-A); 0.151 µM in assay [5] (setting [13]); 0.051 µM in assay [6] (Homo sapiens, PC-3, 72 h, MTS, three days, read-out: mean IC50 (μM) to BMS-A); 0.057 µM in assay [7] (Homo sapiens, DU-145, 72 h, MTS, three days, read-out: mean IC50 (μM) to BMS-A). Besides, the IC50 in assay [8] (Homo sapiens, MDA-PCa-2b, 72 h, MTS, three days, highly resistant: concentration that consistently reduced proliferation used as IC50, read-out: mean IC50 (μM) to BMS-A) was 2.5 µM; in assay [9] (setting [13]) it was 0.058 µM; in assay [10] (Homo sapiens, WPMY-1, 72 h, MTS, three days, highly resistant: concentration that consistently reduced proliferation used as IC50, read-out: mean IC50 (μM) to BMS-A) it was 2.5 µM; in assay [11] (setting [13]) it was 0.163 µM; in assay [12] (5 cell lines considered as resistant group), greater than 2 µM; in [12] (11 cell lines designated as sensitive group), less than 0.2 µM.
